Measurements as given in ChEMBL document CHEMBL1153152, “Amino acid based enantiomerically pure 3-substituted benzofused heterocycles: A new class of antithrombotic agents” (Bioorg Med Chem Lett, 2010).

Assays:
Mus musculus [1] = experiment: Antithrombotic activity in mouse assessed as protection against collagen and adrenaline-induced hind limb paralysis at 30 mg/kg, po for 60 mins; assay type: functional, Hindlimb
Mus musculus [2] = experiment: Toxicity in mouse assessed as increase in bleeding time at 30 mg/kg, po; assay type: organism-based; design: dose 30 mg/kg, route oral; details: in vivo

Row | SMILES | Activity (Mus musculus [1]) [%] | Activity (Mus musculus [2])
1 | Cc1ccc(S(=O)(=O)N2C[C@H](Cc3ccc(OCc4ccccc4)cc3)N(S(=O)(=O)c3ccc(C)cc3)Cc3ccccc32)cc1 | 20 | 4%
2 | Cc1ccc(S(=O)(=O)N2CCc3ccccc3OC[C@@H]2C)cc1 | 40 | Non-toxic
3 | Cc1ccc(S(=O)(=O)N2CCc3ccccc3OC[C@@H]2Cc2ccc(O)cc2)cc1 | 40 | Non-toxic
4 | COc1ccc2c(c1)CN(S(=O)(=O)c1ccc(C)cc1)[C@@H](CC(C)C)CO2 | 30 | 6%
5 | Cc1ccc(S(=O)(=O)N2C[C@H](Cc3ccccc3)N(S(=O)(=O)c3ccc(C)cc3)CCc3ccccc32)cc1 | 20 | 22%
6 | Cc1ccc(S(=O)(=O)N2Cc3ccccc3OC[C@@H]2CC(C)C)cc1 | 10 | 60%
7 | COc1cccc2c1OC[C@H](Cc1ccc(O)cc1)N(S(=O)(=O)c1ccc(C)cc1)C2 | 45 | 24%
8 | COc1ccc2c(c1)CN(S(=O)(=O)c1ccc(C)cc1)[C@@H](Cc1c[nH]c3ccccc13)CO2 | 20 | 12%
9 | Cc1ccc(S(=O)(=O)N2C[C@H](Cc3ccc(OCc4ccccc4)cc3)N(S(=O)(=O)c3ccc(C)cc3)CCc3ccccc32)cc1 | 30 | Non-toxic
10 | Cc1ccc(S(=O)(=O)N2Cc3ccccc3OC[C@@H]2C(C)C)cc1 | 20 | 22%
11 | Cc1ccc(S(=O)(=O)N2Cc3ccccc3OC[C@@H]2Cc2ccc(O)cc2)cc1 | 0 | Non-toxic
12 | Cc1ccc(S(=O)(=O)N2Cc3ccccc3OC[C@@H]2Cc2c[nH]c3ccccc23)cc1 | 40 | 33%
13 | Cc1ccc(S(=O)(=O)N2Cc3ccccc3OC[C@@H]2Cc2ccccc2)cc1 | 20 | Non-toxic
14 | Cc1ccc(S(=O)(=O)N2C[C@H](Cc3ccccc3)N(S(=O)(=O)c3ccc(C)cc3)Cc3ccccc32)cc1 | 20 | 13%
15 | Cc1ccc(S(=O)(=O)N2Cc3ccccc3SC[C@@H]2Cc2ccc(OCc3ccccc3)cc2)cc1 | 10 | 28%
16 | Cc1ccc(S(=O)(=O)N2Cc3ccccc3OC[C@@H]2C)cc1 | 20 | 25%
17 | CC(=O)Oc1ccccc1C(=O)O [ASPIRIN] | 37 | 100%
